# Experimental data taken from patent US20210346326A1, “COMPOSITIONS AND METHODS FOR ALTERING NEUTROPHIL MIGRATION AND METASTASIS” (The Wistar Institute of Anatomy and Biology, priority 2018, published 2021).
# Read-outs that look alike come from different tables or passages of the source.
# Key:
# [1] = system: PM-LC; assay: Transwell assay of spontaneous migration of PM-LC; type: cell-based, mouse; details: for spontaneous migration of PM-LC: PM-LC from one-week LL2 TB mice, agent 10 min prior to plating, 1 hour
# Description: FIG. 7A-FIG. 7H. PM-LC spontaneous migration is dependent upon pannexin-1 hemichannels, extracellular ATP, and P2X and P2Y receptors. (FIG. 7A) Transwell assays evaluating the ability of PM-LC from one-week LL2 mice (left) (n=3) and RET mice (right) (n=5) to spontaneously migrate upon pannexin-1 hemichannel inhibition (panx). (FIG. 7B) Transwell assays evaluating the ability of neutrophils from control mice (n=8) and PM-LC from one-week LL2 mice (n=10) to spontaneously migrate upon apyrase treatment. (FIG. 7C-FIG. 7F) Transwell assays evaluating the ability of neutrophils from control mice (n=6) and PM-LC from one-week LL2 mice (n=7) to spontaneously migrate upon pan P2R inhibitor, P2XR, P2X1, P2Y, and A3R inhibition with suramin, NF449, MRS2179, AR-C118925XX, and MRS 1191, respectively. In addition, the ability of PM-LC from RET melanoma mice (n=3) to spontaneously migrate was also evaluated in the presence of P2Y inhibitors MRS2179 and AR-C118925XX. Individual values and mean and SD are shown. (FIG. 7G) Migration of BM neutrophils from control mice (n=3) and PMN-MDSC from 3-week LL2 mice (n=3) in response to stimulation with different concentrations of ADP. Mean and SD are shown. P values are calculated in two-sided Student's t-test. *−p<0.05; **−p<0.01; ***−p<0.001 (FIG. 7H) pMLC2 in BM neutrophils isolated from naive mice and one-week LL2 TB mice. Experiments were performed three times with similar results.
# Unstimulated migration and chemotaxis was measured using a 3 μm pore transwell system (Neuro Probe Inc. or Sigma-Aldrich). Advanced RPMI with CXCL1 (BioLegend) or fMLP (Sigma-Aldrich) was placed in the bottom of the transwell, as indicated. 0.1×10^6 or 0.5×10^6 cells were incubated with pannexin inhibitor (^10Panx; Tocris), scrambled ^10Panx (Tocris), pan-P2XR inhibitor suramin (R&D Systems), P2X1 inhibitor NF 449 (Tocris), A3R inhibitor MRS 1191 (Santa Cruz), or apyrase (New England Biolabs) in Advanced RPMI for 10 min prior to being plated on top of the Neuro Probe system or Sigma-Aldrich system filter, respectively, and placed at 37° C., 5% CO2 for 1 hour. 10 μl media was taken from the bottom wells and counted by hemocytometer. The quantification of migrated neutrophils was done using the formula N=n×10^4×0.029 reflecting 29 µl media in the bottom well.
# [2] = system: BM neutrophils from control mice; assay: Transwell assay of spontaneous migration of control neutrophils; type: cell-based, mouse
# Description: (§1) FIG. 7A-FIG. 7H. PM-LC spontaneous migration is dependent upon pannexin-1 hemichannels, extracellular ATP, and P2X and P2Y receptors. (FIG. 7A) Transwell assays evaluating the ability of PM-LC from one-week LL2 mice (left) (n=3) and RET mice (right) (n=5) to spontaneously migrate upon pannexin-1 hemichannel inhibition (panx). (FIG. 7B) Transwell assays evaluating the ability of neutrophils from control mice (n=8) and PM-LC from one-week LL2 mice (n=10) to spontaneously migrate upon apyrase treatment. […] In addition, the ability of PM-LC from RET melanoma mice (n=3) to spontaneously migrate was also evaluated in the presence of P2Y inhibitors MRS2179 and AR-C118925XX. […] P values are calculated in two-sided Student's t-test. *−p<0.05; **−p<0.01; ***−p<0.001 (FIG. 7H) pMLC2 in BM neutrophils isolated from naive mice and one-week LL2 TB mice. […]
# (§2) Unstimulated migration and chemotaxis was measured using a 3 μm pore transwell system (Neuro Probe Inc. or Sigma-Aldrich). […] 10 μl media was taken from the bottom wells and counted by hemocytometer. The quantification of migrated neutrophils was done using the formula N=n×10^4×0.029 reflecting 29 µl media in the bottom well.
# [3] = system: PMN-MDSC from 3-week LL2 mice; assay: Transwell assay of migration of PMN-MDSC; type: cell-based, mouse; details: different concentrations of ADP
# Description: as §1, §2
# [4] = system: P2 receptors such as P2X3, P2Y1, and P2Y2, P2X1; details: cited from earlier work
# [5] = target: P2Y1 receptor (Homo sapiens, UniProt P47900); details: in vitro; cited from earlier work
# Sequence of P2Y1 receptor (P47900 whole entry): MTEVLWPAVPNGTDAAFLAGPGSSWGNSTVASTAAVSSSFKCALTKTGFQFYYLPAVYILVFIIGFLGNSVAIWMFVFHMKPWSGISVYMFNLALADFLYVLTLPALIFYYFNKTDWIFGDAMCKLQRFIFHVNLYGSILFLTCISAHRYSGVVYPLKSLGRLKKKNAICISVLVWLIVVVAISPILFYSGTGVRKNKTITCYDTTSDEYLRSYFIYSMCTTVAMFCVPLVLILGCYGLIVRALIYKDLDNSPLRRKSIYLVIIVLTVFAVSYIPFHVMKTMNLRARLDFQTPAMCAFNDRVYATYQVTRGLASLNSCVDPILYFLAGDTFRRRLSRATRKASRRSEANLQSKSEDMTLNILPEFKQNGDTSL
# [6] = rats, compared to controls; cited from earlier work
# [7] = mice, compared to controls; cited from earlier work
# [8] = system: pMLC2; assay: pMLC2 Western blot in PM-LC; type: cell-based, mouse; details: PM-LC from one-week LL2 TB mice; treated 1 hour before Western blot
# Procedure: FIG. 15A-FIG. 15E. Expression of F-actin and genes associated with the glycolytic pathway. (FIG. 15A) Expression of indicated genes in neutrophils from control and RET melanoma mice measured in real-time quantitative PCR (n=3). Individual results for each mouse, mean and SD are shown. (FIG. 15B) F-actin was measured using flow cytometry before and after stimulation with CXCL1 or fMLP in BM neutrophils from indicated tumor models. Typical example of 4 experiments is shown. (FIG. 15C) F-actin in unstimulated cells evaluated by flow cytometry. Individual results for each mouse, mean and SD are shown. (FIG. 15D) F-actin in neutrophils and PMN-MDSC measured by flow cytometry (n=4). Individual results for each mouse, mean and SD are shown. Significant p values in two-sided Student's t-test are shown. (FIG. 15E) pMLC2 in neutrophils from control tumor-free and one-week LLC TB mice. Neutrophils were treated with vehicle alone or with P2Y2 inhibitor (ARC) for 1 hour before Western blot analysis. Two experiments with similar results were performed.
compound,measurement,setting,value
apyrase,spontaneous migration of PM-LC,[1],completely abrogated
same,spontaneous migration of control neutrophils,"[2]; neutrophils from control mice, Transwell",completely abrogated
CCOC(=O)C1=C(C)NC(c2ccccc2)=C(C(=O)OCc2ccccc2)C1C#Cc1ccccc1 (centres unmarked) [MRS 1191],spontaneous migration of PM-LC,[1],did not affect
Nc1ncnc2c1ncn2[C@@H]1O[C@H](COP(=O)(O)OP(=O)(O)O)[C@@H](O)[C@H]1O [ADP],migration of control neutrophils on stimulation,"[2]; BM neutrophils from control mice, different concentrations of ADP",significantly increased migration
same,migration of PMN-MDSC on stimulation,[3],significantly increased migration
Cc1ccc(C(=O)Nc2ccc(S(=O)(=O)O)c3cc(S(=O)(=O)O)cc(S(=O)(=O)O)c23)cc1NC(=O)c1cccc(NC(=O)Nc2cccc(C(=O)Nc3cc(C(=O)Nc4ccc(S(=O)(=O)O)c5cc(S(=O)(=O)O)cc(S(=O)(=O)O)c45)ccc3C)c2)c1 [suramin],spontaneous migration of PM-LC,[1],completely abrogated
"O=C(Nc1cc(C(=O)Nc2ccc(S(=O)(=O)[O-])cc2S(=O)(=O)[O-])cc(C(=O)Nc2ccc(S(=O)(=O)[O-])cc2S(=O)(=O)[O-])c1)Nc1cc(C(=O)Nc2ccc(S(=O)(=O)[O-])cc2S(=O)(=O)[O-])cc(C(=O)Nc2ccc(S(=O)(=O)[O-])cc2S(=O)(=O)[O-])c1.[Na+].[Na+].[Na+].[Na+].[Na+].[Na+].[Na+].[Na+] [NF449, 4,4′,4″,4″′-[Carbonylbis(imino-5,1,3-benzenetriyl-bis(carbonylimino))]tetrakis-1,3-benzen edisulfonic acid octasodium salt]",inhibition of the ability of PM-LCs to spontaneously migrate,[1]; PM-LC from one-week LL2 mice,50%
same,selectivity among P2 receptors,[4],highest selectivity towards P2X1
"CNc1ncnc2c1ncn2[C@H]1C[C@H](OP(=O)(O)O)[C@@H](COP(=O)(O)O)O1.N [MRS2179, 3′-adenylic acid, 2′-deoxy-N-methyl-5′-(dihydrogen phosphate), ammonium salt]",spontaneous migration of PM-LC,[1],completely abrogated the increased spontaneous migration
same,"pA2, inhibition of ADP-induced platelet shape change and aggregation",[5],6.55
same,bleeding time,[6],prolongs bleeding time
same,bleeding time,[7],prolongs bleeding time
"Cc1ccc2c(c1)C=Cc1cc(C)ccc1C2c1cn(Cc2ccc(C(=O)Nc3nn[nH]n3)o2)c(=O)[nH]c1=S [AR-C118925XX, 5-[[5-(2,8-Dimethyl-5H-dibenzo[a,d]cyclohepten-5-yl)-3,4-dihydro-2-oxo-4-thioxo-1(2H)-pyrimidinyl]methyl]-N-2H-tetrazol-5-yl-2-furancarboxamide]",spontaneous migration of PM-LC,[1],completely abrogated the increased spontaneous migration
same,up-regulation of pMLC2 in PM-LC,[8],abrogated
